Experimental data from PMC11790660 (Frontiers in Chemistry, 2025).

Legend:
A549 = test: cells; assay type: cell-based; conditions: Homo sapiens, A549, read-out: IC50 against cell proliferation, A549
[1] = test system: LO2 cell lines (normal liver cell); test: cells; conditions: Homo sapiens, L02, 24 h, read-out: IC50 LO2
[2] = test system: HO-1 levels in RAW264.7 cells; test: ELISA, HO-1 in RAW264.7; assay type: cell-based, Mouse; conditions: RAW264.7, 24 h
[3] = test system: TNF-α levels in RAW264.7 cells; test: ELISA, LPS-mediated TNF-α in RAW264.7; assay type: cell-based, Mouse; conditions: LPS-induced RAW264.7, 24 h, vs control group
[4] = test system: RAW264.7 macrophage cells; test: CCK-8 cell viability, RAW264.7 macrophages; assay type: cell-based, Mouse; conditions: 24 h
Procedure: To obtain more accurate anti-inflammatory results and minimize the impact of cell death caused by the test compounds on the outcomes, we first evaluated the effects of the compounds on RAW264.7 macrophage viability. The cells were divided into two groups: one treated with […] LPS and the other untreated. Macrophages were exposed to compounds at concentrations of 10, 50, and 100 μM for 24 h, followed by cell viability measurement using the CCK-8 assay ([Huang et al., 2022]; [Flannigan and Wallace, 2015]; [Citi et al., 2020]; [Gemici and Wallace, 2015]). […] In the presence of LPS stimulation, a slight reduction of 11% cell activity was observed.
The CCK-8 assay is a commonly used method for assessing cell viability, based on cellular metabolic activity. […]
The CCK-8 assay is a commonly used method for assessing cell viability, based on cellular metabolic activity. […] The culture plate is then incubated in a suitable incubator for a defined period (usually 4 hours), followed by measuring the absorbance of each group's culture medium using a spectrophotometer, typically at a wavelength of 450 nanometers. Cell relative activity or viability is calculated based on absorbance values, often by subtracting the background absorbance from the control group's values and normalizing to the control group's values to obtain relative activity or viability.

HeLa = test: cells; assay type: cell-based; conditions: Homo sapiens, HeLa, read-out: IC50 against cell proliferation, HeLa
[5] = test system: HepG2 cell lines (liver tumor cell); test: cells; conditions: Homo sapiens, HepG2, 24 h, read-out: IC50 HepG2
[6] = test system: nitrite production in RAW264.7 cells; test: Griess assay, LPS-induced nitrite production in RAW264.7; assay type: cell-based; conditions: Mus musculus, 24 h, 1 mg/mL LPS
Excerpt: Nitric oxide (NO) affects inflammation signaling pathways, regulating the intensity and timing of inflammatory responses, making it a crucial regulatory molecule in inflammation. LPS induces the production of nitric oxide (NO) by activating a series of signal transduction pathways. Upon NF-κB activation, transcription of the iNOS gene is promoted, leading to the synthesis of inducible nitric oxide synthase (iNOS). iNOS is an enzyme that produces large amounts of NO, activated under inflammatory conditions to release substantial nitric oxide ([Kumar, 2023]). In vivo, NO is easily oxidized by superoxide ions to generate nitrites. Studies have shown that H2S not only acts to scavenge peroxides but also undergoes chemical reactions with NO, forming novel nitrosylthiol compounds. We assess the anti-inflammatory activity of compounds by measuring nitrite production ([Somensi et al., 2019]).
The Griess assay is used to measure nitrite levels in biological samples, both in vivo and in vitro. See Supplementary Material for more details ([Kumar, 2023]).
The Griess assay is used to measure nitrite levels in biological samples, both in vivo and in vitro. […] The absorbance is measured at a wavelength of 540-550 nanometers, and the concentration of the red product is directly proportional to the absorbance. Nitrite concentrations can be calculated using a standard curve.

[7] = test system: HepG2 cell lines (liver tumor cell)
WI38 normal cells [8] = test system: WI38 normal cells
PI3Kβ = PI3Kβ (Homo sapiens, UniProt P42338); test: In vitro PI3K enzyme inhibitory assay (ADP-Glo), PI3Kβ; assay type: biochemical; conditions: read-out: PI3Kβ % inhibition at 10 μM
Chain of PI3Kβ (P42338 whole entry): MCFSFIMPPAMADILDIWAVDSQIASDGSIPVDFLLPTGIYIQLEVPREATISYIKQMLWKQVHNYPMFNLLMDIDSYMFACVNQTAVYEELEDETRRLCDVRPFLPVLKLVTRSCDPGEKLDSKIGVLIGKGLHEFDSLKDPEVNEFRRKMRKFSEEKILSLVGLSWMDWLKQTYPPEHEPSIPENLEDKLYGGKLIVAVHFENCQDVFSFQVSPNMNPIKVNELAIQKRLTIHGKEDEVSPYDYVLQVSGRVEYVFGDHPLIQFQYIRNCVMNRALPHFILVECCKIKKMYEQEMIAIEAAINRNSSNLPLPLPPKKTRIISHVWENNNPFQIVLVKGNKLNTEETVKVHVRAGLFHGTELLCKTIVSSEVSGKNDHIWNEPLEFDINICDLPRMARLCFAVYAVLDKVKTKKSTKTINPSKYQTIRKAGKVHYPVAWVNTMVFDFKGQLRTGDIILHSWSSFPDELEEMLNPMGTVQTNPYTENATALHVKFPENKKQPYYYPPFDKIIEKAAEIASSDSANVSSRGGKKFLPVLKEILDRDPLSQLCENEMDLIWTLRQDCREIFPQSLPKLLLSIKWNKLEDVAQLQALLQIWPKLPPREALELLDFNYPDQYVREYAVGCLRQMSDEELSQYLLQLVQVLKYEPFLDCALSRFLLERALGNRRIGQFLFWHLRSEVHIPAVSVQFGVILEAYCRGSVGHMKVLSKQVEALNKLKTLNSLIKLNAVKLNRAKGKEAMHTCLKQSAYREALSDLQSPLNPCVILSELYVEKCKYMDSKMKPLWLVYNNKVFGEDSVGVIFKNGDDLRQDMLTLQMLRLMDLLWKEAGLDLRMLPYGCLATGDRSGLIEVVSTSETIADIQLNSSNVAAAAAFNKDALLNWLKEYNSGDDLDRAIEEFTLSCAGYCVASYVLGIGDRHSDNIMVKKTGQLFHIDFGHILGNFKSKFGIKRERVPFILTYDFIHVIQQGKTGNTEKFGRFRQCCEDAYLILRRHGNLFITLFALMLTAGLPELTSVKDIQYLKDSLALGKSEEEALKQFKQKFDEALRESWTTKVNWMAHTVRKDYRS
Chain of PI3Kβ (P27986 whole entry partner): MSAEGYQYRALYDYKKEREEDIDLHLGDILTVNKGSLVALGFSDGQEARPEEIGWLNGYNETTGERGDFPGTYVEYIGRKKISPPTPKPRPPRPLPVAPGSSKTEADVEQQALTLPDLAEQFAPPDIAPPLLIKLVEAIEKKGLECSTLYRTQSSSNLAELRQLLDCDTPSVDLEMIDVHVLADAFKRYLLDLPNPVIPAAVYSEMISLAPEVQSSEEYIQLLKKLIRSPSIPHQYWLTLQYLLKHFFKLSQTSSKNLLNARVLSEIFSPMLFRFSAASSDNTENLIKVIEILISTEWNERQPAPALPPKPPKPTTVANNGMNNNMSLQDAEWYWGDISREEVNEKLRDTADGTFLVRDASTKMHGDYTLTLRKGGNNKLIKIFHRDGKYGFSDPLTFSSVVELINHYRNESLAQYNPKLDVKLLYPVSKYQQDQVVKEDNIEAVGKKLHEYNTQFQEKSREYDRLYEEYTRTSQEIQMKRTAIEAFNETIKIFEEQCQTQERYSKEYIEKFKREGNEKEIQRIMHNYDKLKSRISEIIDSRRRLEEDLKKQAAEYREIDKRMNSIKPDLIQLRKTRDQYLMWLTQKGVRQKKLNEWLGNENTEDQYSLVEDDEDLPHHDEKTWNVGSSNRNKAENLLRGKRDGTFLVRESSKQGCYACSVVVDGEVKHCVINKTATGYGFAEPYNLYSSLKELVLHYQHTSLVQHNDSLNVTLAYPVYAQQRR

WI38 normal cells [9] = test: cells; conditions: Homo sapiens, WI-38, read-out: IC50 WI38
[10] = H2S release, methylene blue (MB+) method; assay type: physicochemical; conditions: MB+ method with TECP or cysteine; different temperature and pH
PI3Kα = PI3Kα (Homo sapiens, UniProt P42336); test: In vitro PI3K enzyme inhibitory assay (ADP-Glo), PI3Kα; assay type: biochemical; conditions: read-out: PI3Kα % inhibition at 10 μM
Chain of PI3Kα (P42336 whole entry): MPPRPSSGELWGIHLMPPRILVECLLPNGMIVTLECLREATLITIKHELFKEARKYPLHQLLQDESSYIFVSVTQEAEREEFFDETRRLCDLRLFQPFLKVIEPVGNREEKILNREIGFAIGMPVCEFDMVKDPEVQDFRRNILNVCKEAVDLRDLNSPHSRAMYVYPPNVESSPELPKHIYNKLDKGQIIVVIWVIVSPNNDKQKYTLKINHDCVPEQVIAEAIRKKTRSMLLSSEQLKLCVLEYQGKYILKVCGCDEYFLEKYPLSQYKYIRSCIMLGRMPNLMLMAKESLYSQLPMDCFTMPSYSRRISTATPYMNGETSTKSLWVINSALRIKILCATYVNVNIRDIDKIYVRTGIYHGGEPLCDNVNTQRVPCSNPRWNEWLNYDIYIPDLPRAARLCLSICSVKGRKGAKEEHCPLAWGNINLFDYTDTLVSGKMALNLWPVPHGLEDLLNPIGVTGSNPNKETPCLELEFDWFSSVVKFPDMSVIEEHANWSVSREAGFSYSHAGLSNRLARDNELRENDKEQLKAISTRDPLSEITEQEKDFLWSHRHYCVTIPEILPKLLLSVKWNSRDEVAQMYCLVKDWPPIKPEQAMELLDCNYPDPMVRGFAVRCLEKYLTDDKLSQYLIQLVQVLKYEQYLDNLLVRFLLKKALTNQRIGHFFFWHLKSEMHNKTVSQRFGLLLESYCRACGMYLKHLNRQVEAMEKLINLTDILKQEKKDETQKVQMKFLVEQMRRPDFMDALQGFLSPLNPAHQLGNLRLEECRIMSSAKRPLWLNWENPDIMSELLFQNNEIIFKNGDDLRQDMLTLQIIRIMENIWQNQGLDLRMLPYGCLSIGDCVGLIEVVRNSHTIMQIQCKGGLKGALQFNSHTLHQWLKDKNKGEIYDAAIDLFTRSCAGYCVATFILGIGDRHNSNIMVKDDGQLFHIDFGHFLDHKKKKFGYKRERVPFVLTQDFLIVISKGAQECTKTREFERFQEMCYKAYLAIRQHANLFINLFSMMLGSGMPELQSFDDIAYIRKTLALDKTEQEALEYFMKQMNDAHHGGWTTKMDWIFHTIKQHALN
Chain of PI3Kα (P27986 whole entry partner): as the sequence (P27986 whole entry partner) above

[11] = test system: IL-10 level in RAW264.7 cells; test: ELISA, IL-10 in RAW264.7; assay type: cell-based, Mouse; conditions: RAW264.7, 24 h
PI3Kγ = PI3Kγ (Homo sapiens, UniProt P48736); test: In vitro PI3K enzyme inhibitory assay (ADP-Glo), PI3Kγ; assay type: biochemical; conditions: read-out: PI3Kγ % inhibition at 10 μM
Chain of PI3Kγ (P48736 whole entry): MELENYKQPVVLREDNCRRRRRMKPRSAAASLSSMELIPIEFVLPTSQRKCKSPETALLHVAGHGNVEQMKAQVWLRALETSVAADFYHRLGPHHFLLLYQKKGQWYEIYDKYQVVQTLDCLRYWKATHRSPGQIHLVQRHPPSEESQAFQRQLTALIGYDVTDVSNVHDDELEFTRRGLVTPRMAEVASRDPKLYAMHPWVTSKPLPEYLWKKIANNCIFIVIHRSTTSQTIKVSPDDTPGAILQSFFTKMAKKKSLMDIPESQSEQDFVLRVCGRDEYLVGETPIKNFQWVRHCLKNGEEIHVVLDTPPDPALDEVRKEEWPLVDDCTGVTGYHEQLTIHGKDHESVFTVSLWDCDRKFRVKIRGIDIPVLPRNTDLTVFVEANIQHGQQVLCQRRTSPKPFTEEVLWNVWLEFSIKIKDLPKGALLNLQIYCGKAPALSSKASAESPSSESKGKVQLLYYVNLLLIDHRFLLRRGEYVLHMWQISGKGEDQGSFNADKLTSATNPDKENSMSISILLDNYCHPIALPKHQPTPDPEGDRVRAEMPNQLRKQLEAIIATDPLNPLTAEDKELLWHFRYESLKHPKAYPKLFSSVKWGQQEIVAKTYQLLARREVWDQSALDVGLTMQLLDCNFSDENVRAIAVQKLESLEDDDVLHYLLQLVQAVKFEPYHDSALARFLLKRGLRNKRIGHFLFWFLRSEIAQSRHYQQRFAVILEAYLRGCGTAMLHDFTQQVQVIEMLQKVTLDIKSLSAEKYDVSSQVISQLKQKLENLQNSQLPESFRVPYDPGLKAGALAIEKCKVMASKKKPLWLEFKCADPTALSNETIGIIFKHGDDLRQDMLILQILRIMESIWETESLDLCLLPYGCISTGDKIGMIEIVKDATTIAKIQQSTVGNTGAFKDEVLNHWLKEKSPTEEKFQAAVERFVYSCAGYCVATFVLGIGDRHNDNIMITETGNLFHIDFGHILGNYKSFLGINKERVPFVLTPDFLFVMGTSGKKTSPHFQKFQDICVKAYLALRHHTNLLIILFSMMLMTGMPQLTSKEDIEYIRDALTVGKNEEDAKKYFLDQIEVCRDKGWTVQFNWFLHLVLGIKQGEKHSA

AKT = test: In vitro AKT enzyme inhibitory assay; assay type: biochemical
MCF-7 = test: cells; assay type: cell-based; conditions: Homo sapiens, MCF7, read-out: IC50 against cell proliferation, MCF-7
[12] = test system: LO2 cell lines (normal liver cell)

With O=[N+]([O-])c1ccc2c(c1)NP(=S)(c1ccccc1)O2 (centres unmarked) [Compound S11, 5-nitro-2-phenyl-3H-benzo [d][1,3,2] oxazaphosphole 2-sulfide] the IC50 (A549) was 294 ± 16.6 µM, the IC50 [1] was greater than 200 µM and the “HO-1 expression relative to control group” value [2] was “approximately twice the level of the control group”. For the same molecule, the “Decrease of TNF-α induction level” value [3] was 80%, the “Effect on RAW264.7 cell growth” value ([4]; absence of LPS, 10, 50, 100 μM) was “no significant effect on cell growth” and the “Reduction of RAW264.7 cell activity” value ([4]; presence of LPS stimulation, 10, 50, 100 μM) was 11%. For the same molecule, the IC50 (HeLa) was 260 ± 7.6 µM, the IC50 [5] was greater than 400 µM and the inhibition at 100 µM [6] was roughly 75%. For the same molecule, the “Toxicity in words, HepG2” value [7] was “low cytotoxicity”, the “Toxicity in words, WI38” value (WI38 normal cells [8]) was “low cytotoxicity” and the inhibition at 10 µM (PI3Kβ) was 75%. For the same molecule, the IC50 (WI38 normal cells [9]) was greater than 200 µM, the “H2S release amount (in words)” value [10] was “the highest amount of hydrogen sulfide was released” and the inhibition at 10 µM (PI3Kα) was 67%. The “Induction level of IL-10 relative to control group” value [11] was “three times that of the control group”, the inhibition at 10 µM (PI3Kγ) was 45% and the “AKT % inhibition at 10 μM” value (AKT) was 61%. For the same molecule, the IC50 (MCF-7) was 23 ± 3.2 µM and the “Toxicity in words, LO2” value [12] was “low cytotoxicity”.
